Reference: patent US20090264345A1, “MACROCYCLIC PEPTIDES AND METHODS FOR MAKING AND USING THEM” (priority 2006, published 2009)
Where two headings read alike, the source gives them in different places.

Experiments:
[1] = amide bond, 15-membered ring, DEPBT/HATU/TBTU/DIEA, THF/MeCN/CH2Cl2 2:2:1, 7.0 mM, 2 steps
[2] = system: MSS colon cancers; details: drug of choice for MSS colon cancers; cited from earlier work
[3] = system: virus-encoded topoisomerase I; details: poxvirus MCV; Hwang et al. 1999; cited from earlier work

Compound: CC(C)C[C@@H]1NC(=O)[C@H](C(C)C)NC(=O)[C@@H](CC(C)C)NC(=O)[C@@H](CC(C)C)NC(=O)[C@H](Cc2ccccc2)NC1=O [cyclo[-Phe-Leu-Val-Xaa-Xaa-] (Xaa-4 DLeu, Xaa-5 DLeu)]
- ring closure, isolated yield ([1]; from H-dLeu-dLeu-Val-Leu-Phe-OH?): 35%

Compound: CC(C)C[C@@H]1NC(=O)[C@H](Cc2ccccc2)NC(=O)[C@@H](CC(C)C)NC(=O)[C@H](C(C)C)NC(=O)[C@H](CC(C)C)NC1=O [cyclo[-Phe-Xaa-Val-Leu-Leu-] (Xaa-2 DLeu)]
- ring closure, isolated yield ([1]; from H-Leu-Leu-Val-dLeu-Phe-OH?): 85%

Compound: CC(C)C[C@@H]1NC(=O)[C@H](CC(C)C)NC(=O)[C@@H](Cc2ccccc2)NC(=O)[C@@H](CC(C)C)NC(=O)[C@H](C(C)C)NC1=O [cyclo[-Xaa-Xaa-Val-Leu-Leu-] (Xaa-1 DPhe, Xaa-2 DLeu)]
- ring closure, isolated yield ([1]; from H-Leu-Leu-Val-dLeu-dPhe-OH?): 37%

Compound: CC(C)C[C@@H]1NC(=O)[C@H](Cc2ccccc2)NC(=O)[C@@H](CC(C)C)N(C)C(=O)[C@H](C(C)C)NC(=O)[C@H](CC(C)C)NC1=O [cyclo[-Phe-Xaa-Val-Leu-Leu-] (Xaa-2 DNMeLeu)]
- ring closure, isolated yield ([1]; from H-Leu-Leu-Val-dMeLeu-Phe-OH?): 81%

Compound: CC(C)C[C@@H]1NC(=O)[C@H](Cc2ccccc2)NC(=O)[C@H](CC(C)C)NC(=O)[C@@H](C(C)C)NC(=O)[C@H](CC(C)C)NC1=O [cyclo[-Phe-Leu-Xaa-Leu-Leu-] (Xaa-3 DVal)]
- ring closure, isolated yield ([1]; from H-Leu-Leu-dVal-Leu-Phe-OH?): 65%

Compound: CC(C)C[C@@H]1NC(=O)[C@H](Cc2ccccc2)NC(=O)[C@H](CC(C)C)NC(=O)[C@H](C(C)C)NC(=O)[C@@H](CC(C)C)NC1=O [cyclo[-Phe-Leu-Val-Xaa-Leu-] (Xaa-4 DLeu)]
- ring closure, isolated yield ([1]; from H-Leu-dLeu-Val-Leu-Phe-OH?): 53%

Compound: O=c1[nH]cc(F)c(=O)[nH]1 [5-fluorouracil]
- IC50 [2]: 5 µM

Compound: CC(C)C[C@@H]1NC(=O)[C@H](CC(C)C)NC(=O)[C@@H](Cc2ccccc2)NC(=O)[C@H](CC(C)C)NC(=O)[C@H](C(C)C)NC1=O [cyclo[-Xaa-Leu-Val-Leu-Leu-] (Xaa-1 DPhe)]
- ring closure, isolated yield ([1]; from H-Leu-Leu-Val-Leu-dPhe-OH?): 39%

Compound: Sansalvamide A [San A]
- inhibition of topoisomerase I [3]: inhibitor

Compound: CC(C)C[C@@H]1NC(=O)[C@H](C(C)C)NC(=O)[C@H](CC(C)C)N(C)C(=O)[C@@H](CC(C)C)NC(=O)[C@H](Cc2ccccc2)NC1=O [cyclo[-Phe-Leu-Val-Xaa-Xaa-] (Xaa-4 NMeLeu, Xaa-5 DLeu)]
- ring closure, isolated yield ([1]; from H-dLeu-MeLeu-Val-Leu-Phe-OH?): 40%

Compound: CC(C)C[C@@H]1NC(=O)[C@H](Cc2ccccc2)NC(=O)[C@H](CC(C)C)NC(=O)[C@H](C(C)C)NC(=O)[C@H](CC(C)C)NC1=O [cyclo[-Phe-Leu-Val-Leu-Leu-]]
- ring closure, isolated yield ([1]; from H-Leu-Leu-Val-Leu-Phe-OH?): 65%
